Assay: molar heat capacity at constant pressure
Settings: 101.33 kPa, Crystal

OC[C@@H](O)[C@@H](O)CO [meso-1,2,3,4-butanetetrol]
molar heat capacity at constant pressure [J/K/mol]
Settings | Small sample (50 mg) DSC | relaxation calorimetry
264.15 K | 146.16 | –
265.15 K | 146.7 | –
266.15 K | 147.21 | –
267.15 K | 147.61 | –
268.15 K | 148.1 | –
269.15 K | 148.57 | –
270 K | – | 150.4
270.15 K | 149.15 | –
271.15 K | 149.59 | –
272.15 K | 150.19 | –
272.18 K | – | 151.4
273.15 K | 150.91 | 152
274.15 K | 151.33 | –
275.15 K | 151.84 | –
276.15 K | 152.44 | –
277.15 K | 152.94 | –
278.15 K | 153.58 | –
279.15 K | 154.21 | –
280 K | – | 155.49
280.15 K | 154.62 | –
281.15 K | 155.17 | –
282.15 K | 155.77 | –
282.18 K | – | 157.05
283.15 K | 156.24 | –
284.15 K | 156.55 | –
285.15 K | 157.21 | –
286.15 K | 157.62 | –
287.15 K | 158.1 | –
288.15 K | 158.65 | –
289.15 K | 159.25 | –
290 K | – | 160.61
290.15 K | 159.93 | –
291.15 K | 160.48 | –
292.15 K | 161.05 | –
292.3 K | – | 161.64
293.15 K | 161.72 | –
294.15 K | 162.21 | –
295.15 K | 162.81 | –
296.15 K | 163.64 | –
297.15 K | 164.09 | –
298.15 K | 164.59 | 164.8
299.15 K | 165.2 | –
300 K | – | 165.76
300.15 K | 165.82 | –
301.15 K | 166.37 | –
302.15 K | 166.97 | –
302.36 K | – | 167.01
303.15 K | 167.71 | –
304.15 K | 168.28 | –
305 K | 169.01 | –
305.15 K | 169.01 | –
306.15 K | 169.71 | –
307.15 K | 170.39 | –
308.15 K | 171.17 | –
309.15 K | 171.87 | –
310 K | 172.33 | –
310.15 K | 172.47 | –
311.15 K | 173.14 | –
312.15 K | 173.77 | –
313.15 K | 174.6 | –
314.15 K | 175.09 | –
315 K | 175.5 | –
315.15 K | 175.58 | –
316.15 K | 176.2 | –
317.15 K | 176.88 | –
318.15 K | 177.32 | –
319.15 K | 177.89 | –
320 K | 178.54 | –
320.15 K | 178.54 | –
321.15 K | 179.14 | –
322.15 K | 179.7 | –
323.15 K | 180.24 | –
324.15 K | 180.85 | –
325 K | 181.48 | –
325.15 K | 181.48 | –
326.15 K | 181.97 | –
327.15 K | 182.72 | –
328.15 K | 183.34 | –
329.15 K | 183.85 | –
330 K | 184.34 | –
330.15 K | 184.59 | –
331.15 K | 185.18 | –
332.15 K | 185.74 | –
333.15 K | 186.31 | –
334.15 K | 186.85 | –
335 K | 187.15 | –
